Tests used:
Assay in all cases: KINOMEscan competition binding
Details in all cases: compound 10.0 µM
[1] = test system: EIF2AK4 KD2 (human), Q9P2K8 [S808G]
[2] = test system: ABL1 (human), P00519 [E255K]
[3] = test system: EGFR (human), P00533 [P753S; 747-752 del]
[4] = test system: FLT3 (human), P36888 [ITD]
[5] = test system: ABL1 (human), P00519 [M351T]
[6] = test system: ABL1 (human), P00519 [Q252H]
[7] = test system: KIT (human), P10721 [D816V]
[8] = test system: EGFR (human), P00533 [L861Q]
[9] = test system: FLT3 (human), P36888 [N841I]
[10] = test system: PIK3CA (human), P42336 [E545K]
[11] = test system: EGFR (human), P00533 [G719S]
[12] = test system: EGFR (human), P00533 [746-750 del]
[13] = test system: KIT (human), P10721 [V559D/T670I]
[14] = test system: KIT (human), P10721 [V559D]
[15] = test system: ABL1 (human), P00519 [T315I]
[16] = test system: FLT3 (human), P36888 [K663Q]
[17] = test system: PIK3CA (human), P42336 [Q546K]
[18] = test system: PIK3CA (human), P42336 [H1047Y]
[19] = test system: PIK3CA (human), P42336 [E545A]
[20] = test system: PIK3CA (human), P42336 [C420R]
[21] = test system: PIK3CA (human), P42336 [I800L]
Chain of PIK3CA (human), P42336 [I800L] (P42336 whole entry I800L, looked up): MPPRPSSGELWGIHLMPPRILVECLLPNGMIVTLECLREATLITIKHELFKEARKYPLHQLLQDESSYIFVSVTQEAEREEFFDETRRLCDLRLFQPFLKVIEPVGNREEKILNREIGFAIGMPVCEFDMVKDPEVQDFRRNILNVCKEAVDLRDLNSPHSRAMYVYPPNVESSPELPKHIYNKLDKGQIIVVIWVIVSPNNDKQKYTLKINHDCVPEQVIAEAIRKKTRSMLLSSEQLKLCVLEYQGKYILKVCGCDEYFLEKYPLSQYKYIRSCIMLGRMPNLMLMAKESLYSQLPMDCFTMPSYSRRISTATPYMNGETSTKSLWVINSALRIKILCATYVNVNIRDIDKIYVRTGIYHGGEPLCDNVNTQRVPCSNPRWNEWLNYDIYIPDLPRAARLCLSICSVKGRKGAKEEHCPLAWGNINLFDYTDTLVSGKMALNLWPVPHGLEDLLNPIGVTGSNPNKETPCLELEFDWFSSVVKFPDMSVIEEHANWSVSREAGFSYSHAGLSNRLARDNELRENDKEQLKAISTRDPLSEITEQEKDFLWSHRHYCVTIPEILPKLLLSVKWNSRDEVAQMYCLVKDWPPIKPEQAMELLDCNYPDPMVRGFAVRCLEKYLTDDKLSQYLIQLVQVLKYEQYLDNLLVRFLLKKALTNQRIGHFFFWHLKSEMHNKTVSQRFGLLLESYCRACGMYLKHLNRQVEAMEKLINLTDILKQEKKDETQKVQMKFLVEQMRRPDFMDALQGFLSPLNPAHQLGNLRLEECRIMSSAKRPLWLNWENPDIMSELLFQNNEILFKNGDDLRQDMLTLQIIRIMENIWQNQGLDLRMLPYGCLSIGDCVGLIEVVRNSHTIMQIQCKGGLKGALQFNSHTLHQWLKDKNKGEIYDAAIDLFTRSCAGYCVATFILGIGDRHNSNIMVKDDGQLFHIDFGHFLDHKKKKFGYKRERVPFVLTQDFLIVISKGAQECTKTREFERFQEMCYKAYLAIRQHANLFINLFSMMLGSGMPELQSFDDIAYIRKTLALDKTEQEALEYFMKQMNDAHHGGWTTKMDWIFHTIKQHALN

Chain of KIT (human), P10721 [V559D/T670I] (P10721 whole entry V559D/T670I, looked up): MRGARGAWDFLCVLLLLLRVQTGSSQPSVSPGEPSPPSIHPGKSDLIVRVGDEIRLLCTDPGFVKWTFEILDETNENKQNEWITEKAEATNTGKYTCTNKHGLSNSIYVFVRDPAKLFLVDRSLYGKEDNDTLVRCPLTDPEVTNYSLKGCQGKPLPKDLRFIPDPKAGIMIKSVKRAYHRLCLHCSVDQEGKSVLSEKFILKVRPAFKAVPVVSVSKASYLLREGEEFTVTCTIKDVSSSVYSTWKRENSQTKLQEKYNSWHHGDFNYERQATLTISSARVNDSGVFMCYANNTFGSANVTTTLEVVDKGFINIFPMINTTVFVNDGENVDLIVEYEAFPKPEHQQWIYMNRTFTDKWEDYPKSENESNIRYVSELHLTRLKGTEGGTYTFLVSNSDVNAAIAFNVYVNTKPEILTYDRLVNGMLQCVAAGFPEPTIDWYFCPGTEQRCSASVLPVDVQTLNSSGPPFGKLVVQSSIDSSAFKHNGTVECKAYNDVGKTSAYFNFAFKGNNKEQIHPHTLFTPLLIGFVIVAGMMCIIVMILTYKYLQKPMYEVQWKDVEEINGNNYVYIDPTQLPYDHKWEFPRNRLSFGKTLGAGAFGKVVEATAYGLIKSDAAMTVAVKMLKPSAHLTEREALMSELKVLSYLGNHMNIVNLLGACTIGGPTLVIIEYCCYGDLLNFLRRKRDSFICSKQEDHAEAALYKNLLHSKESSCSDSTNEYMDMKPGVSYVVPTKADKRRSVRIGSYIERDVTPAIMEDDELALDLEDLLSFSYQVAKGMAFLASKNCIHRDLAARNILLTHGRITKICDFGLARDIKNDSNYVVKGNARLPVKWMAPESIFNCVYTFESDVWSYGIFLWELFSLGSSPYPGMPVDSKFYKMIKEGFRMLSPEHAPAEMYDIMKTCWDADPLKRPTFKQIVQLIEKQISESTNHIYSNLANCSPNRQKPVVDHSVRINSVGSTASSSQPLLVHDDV
Chain of PIK3CA (human), P42336 [C420R] (P42336 whole entry C420R, looked up): as the sequence (P42336 whole entry I800L, looked up) above, with C420R, L800I counted along it
Chain of PIK3CA (human), P42336 [H1047Y] (P42336 whole entry H1047Y, looked up): as the sequence (P42336 whole entry I800L, looked up) above, with L800I, H1047Y counted along it
Chain of KIT (human), P10721 [V559D] (P10721 whole entry V559D, looked up): as the sequence (P10721 whole entry V559D/T670I, looked up) above, with I670T counted along it
Chain of PIK3CA (human), P42336 [Q546K] (P42336 whole entry Q546K, looked up): as the sequence (P42336 whole entry I800L, looked up) above, with Q546K, L800I counted along it
Chain of EIF2AK4 KD2 (human), Q9P2K8 [S808G] (Q9P2K8 whole entry S808G, looked up): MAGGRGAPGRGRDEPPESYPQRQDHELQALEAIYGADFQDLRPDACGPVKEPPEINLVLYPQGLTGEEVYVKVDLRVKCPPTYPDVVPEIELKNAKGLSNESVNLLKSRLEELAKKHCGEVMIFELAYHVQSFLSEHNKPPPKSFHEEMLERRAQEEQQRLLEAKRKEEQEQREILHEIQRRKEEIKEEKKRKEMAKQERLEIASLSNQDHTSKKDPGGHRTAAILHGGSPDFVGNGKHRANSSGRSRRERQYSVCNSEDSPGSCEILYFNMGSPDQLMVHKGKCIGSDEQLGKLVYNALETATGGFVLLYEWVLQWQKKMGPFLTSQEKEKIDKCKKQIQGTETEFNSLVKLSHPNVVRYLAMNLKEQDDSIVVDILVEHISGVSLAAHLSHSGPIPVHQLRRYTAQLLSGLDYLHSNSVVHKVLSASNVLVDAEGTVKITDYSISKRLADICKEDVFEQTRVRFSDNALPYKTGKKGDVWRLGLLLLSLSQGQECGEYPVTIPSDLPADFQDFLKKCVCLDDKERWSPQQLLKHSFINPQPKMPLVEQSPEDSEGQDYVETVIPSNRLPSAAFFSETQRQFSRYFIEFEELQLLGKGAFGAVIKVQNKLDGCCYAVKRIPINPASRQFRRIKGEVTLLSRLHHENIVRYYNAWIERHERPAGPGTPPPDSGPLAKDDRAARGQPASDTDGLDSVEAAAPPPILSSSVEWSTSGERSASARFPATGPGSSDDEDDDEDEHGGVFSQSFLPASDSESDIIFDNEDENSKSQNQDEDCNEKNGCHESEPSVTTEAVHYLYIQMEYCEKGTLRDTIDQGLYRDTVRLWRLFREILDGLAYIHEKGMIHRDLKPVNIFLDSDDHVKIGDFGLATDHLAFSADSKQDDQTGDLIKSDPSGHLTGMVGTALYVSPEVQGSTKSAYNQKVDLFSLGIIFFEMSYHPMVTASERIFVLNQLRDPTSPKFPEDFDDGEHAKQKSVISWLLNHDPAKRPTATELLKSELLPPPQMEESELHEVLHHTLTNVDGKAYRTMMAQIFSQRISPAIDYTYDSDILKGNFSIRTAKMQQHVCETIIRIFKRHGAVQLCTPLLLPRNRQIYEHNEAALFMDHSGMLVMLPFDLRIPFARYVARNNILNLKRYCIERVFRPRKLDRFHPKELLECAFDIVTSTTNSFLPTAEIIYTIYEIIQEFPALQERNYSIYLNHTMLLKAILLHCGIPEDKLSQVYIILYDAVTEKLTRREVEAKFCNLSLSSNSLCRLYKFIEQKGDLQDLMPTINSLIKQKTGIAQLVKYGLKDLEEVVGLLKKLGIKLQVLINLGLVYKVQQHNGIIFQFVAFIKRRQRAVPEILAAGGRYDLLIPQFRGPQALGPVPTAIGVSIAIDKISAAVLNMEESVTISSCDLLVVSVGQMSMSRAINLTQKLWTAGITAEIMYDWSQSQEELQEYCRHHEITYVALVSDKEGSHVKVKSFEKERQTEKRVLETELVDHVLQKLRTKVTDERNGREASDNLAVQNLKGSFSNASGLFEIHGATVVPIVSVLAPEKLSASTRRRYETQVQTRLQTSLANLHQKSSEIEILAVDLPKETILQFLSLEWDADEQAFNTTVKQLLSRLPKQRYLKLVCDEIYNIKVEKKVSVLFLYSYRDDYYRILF
Chain of KIT (human), P10721 [D816V] (P10721 whole entry D816V, looked up): as the sequence (P10721 whole entry V559D/T670I, looked up) above, with D559V, I670T, D816V counted along it
Chain of PIK3CA (human), P42336 [E545K] (P42336 whole entry E545K, looked up): as the sequence (P42336 whole entry I800L, looked up) above, with E545K, L800I counted along it
Chain of PIK3CA (human), P42336 [E545A] (P42336 whole entry E545A, looked up): as the sequence (P42336 whole entry I800L, looked up) above, with E545A, L800I counted along it

SMILES | kinase still bound, per cent of control [1] | kinase still bound, per cent of control [2] | kinase still bound, per cent of control [3] | kinase still bound, per cent of control [4] | kinase still bound, per cent of control [5] | kinase still bound, per cent of control [6] | kinase still bound, per cent of control [7] | kinase still bound, per cent of control [8] | kinase still bound, per cent of control [9] | kinase still bound, per cent of control [10] | kinase still bound, per cent of control [11] | kinase still bound, per cent of control [12] | kinase still bound, per cent of control [13] | kinase still bound, per cent of control [14] | kinase still bound, per cent of control [15] | kinase still bound, per cent of control [16] | kinase still bound, per cent of control [17] | kinase still bound, per cent of control [18] | kinase still bound, per cent of control [19] | also measured
COc1ccc(N(C(=O)Oc2cc(C(=O)Nc3cccc(C(F)(F)F)c3)ccc2C)c2ccnc(Nc3ccc(N4CCN(C)CC4)cc3)n2)c(OC)c1 | 100% | 7.2% | 2.5% | 100% | 1.4% | 1.8% | 0.75% | 1% | 29% | 100% | 18% | 6.1% | 3.8% | 0.5% | 0.45% | – | – | – | – | –
CNC(=O)c1ccc(Nc2cc(Nc3ccccc3S(=O)(=O)C(C)C)c3cc[nH]c3n2)nc1 | 100% | 20% | 100% | 0.25% | 7.9% | 11% | 4.5% | 100% | 0.35% | 4.7% | 100% | 100% | 22% | 18% | 0% | 2.6% | – | – | – | –
CS(=O)(=O)N1CCN(Cc2cc3nc(-c4cccc5[nH]ncc45)nc(N4CCOCC4)c3s2)CC1 | 100% | 100% | 100% | 100% | 100% | 100% | 100% | 100% | 100% | 0.3% | 100% | 100% | 100% | 100% | 100% | 100% | 0.35% | 14% | 0.35% | –
CCN(CC)CCCCNc1ncc2c(n1)N(C)C(=O)N(c1c(Cl)c(OC)cc(OC)c1Cl)C2 | 9.5% | 100% | 100% | 100% | 100% | 100% | 100% | 100% | 100% | 100% | 100% | 100% | 100% | 6.1% | 100% | 100% | 100% | 100% | 100% | kinase still bound, per cent of control [20]: 100%
CCN(CC)CCCCNc1ncc2cc(-c3cc(OC)cc(OC)c3)c(NC(=O)NC(C)(C)C)nc2n1 | 100% | 100% | – | 100% | 100% | 100% | 100% | – | 100% | 100% | – | – | 100% | 100% | 100% | – | – | – | – | –
COc1cc(C)c(Sc2cnc(NC(=O)c3ccc(CNC(C)C(C)C)cc3)s2)cc1C(=O)N1CCN(C(C)=O)CC1 (centres undefined) | 100% | 100% | 100% | 100% | 100% | 100% | 100% | 100% | 16% | 100% | 100% | 100% | 100% | 100% | 19% | 100% | – | – | – | –
C=CC(=O)Nc1ccc(CN(C(=O)Nc2c(Cl)c(OC)cc(OC)c2Cl)c2cc(Nc3ccc(N4CCN(C)CC4)cc3)ncn2)cc1 | 1.5% | 100% | 0.45% | 100% | 16% | 14% | 7.2% | 0.1% | 8.4% | 100% | 0.15% | 0.6% | 29% | 0.1% | 6.4% | 21% | – | – | – | –
Cc1n[nH]c2ccc(-c3cncc(OC[C@@H](N)Cc4c[nH]c5ccccc45)c3)cc12 | 100% | 100% | – | 0.1% | 100% | 100% | 1.1% | – | 0.1% | 100% | – | – | 100% | 100% | 100% | 3.8% | – | – | – | –
COc1cc(N2CCC(C(N)=O)CC2)ccc1Nc1nc(N)c(Cl)c(Nc2ccccc2S(=O)(=O)C(C)C)n1 | 100% | 100% | 2.9% | 20% | 100% | 100% | 24% | 0.3% | 13% | 100% | 21% | 0% | 100% | 100% | 100% | 100% | – | – | – | –
CC1=C(C(=O)Nc2cc3cn[nH]c3cc2F)C(c2ccc(C(F)(F)F)cc2)CC(=O)N1 (centres undefined) | 100% | 77% | 100% | 83% | 82% | – | 49% | 91% | 75% | 100% | 57% | 96% | 88% | 82% | – | 78% | 32% | 43% | 38% | kinase still bound, per cent of control [20]: 63%; kinase still bound, per cent of control [21]: 100%
C=CC(=O)Nc1ccc(C(=O)c2sc(Nc3ccc(N4CCN(C)CC4)cc3OC)nc2N)cc1 | 83% | 81% | 81% | 73% | 82% | – | 67% | 51% | 37% | 93% | 52% | 77% | 59% | 69% | – | 64% | 100% | 88% | 93% | kinase still bound, per cent of control [20]: 83%; kinase still bound, per cent of control [21]: 83%

— the kinase profiling compilation of Christmann-Franck et al. (2016)
